Like-named read-outs stand apart in the source and are kept apart here.
Assays:
[1] = system: Substance P Induced Plasma Extravasation; assay: Antagonism of substance P induced plasma extravasation in guinea-pigs; format: in vivo, guinea-pig; conditions: Cavia porcellus, sc, s.c., 1 hour prior to substance P
Summary of the method: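 Female guinea-pigs; compound or solvent given s.c. or p.o. 1 h before substance P (2 mg/kg, femoral artery) plus Evans Blue (30 mg/kg). Blue colouring of nose, forepaws, conjunctiva scored at 10 min; trachea and urinary bladder at 30 min after CO2 sacrifice. Values are lowest active doses in mg/kg.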

[2] = system: Substance P Induced Relaxation of the Pig Coronary Arteries; assay: Antagonism of substance P induced relaxation of the pig coronary arteries; conditions: test compound concentration 3 × 10^-9 (unit not given), 30 min incubation
Summary of the method: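 Inverted pig coronary artery segments, endothelium outside, in Krebs-Henseleit at 37 °C (95/5 O2/CO2), isometric tension recorded. After prostaglandin F2α (10^-5 M) precontraction, substance P (3×10^-10 M and 10^-9 M cumulative) relaxation repeated after 30 min incubation with test compound.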

[3] = 10 min, conjunctiva, read-out: lowest active dose (LAD), conjunctiva
[4] = 10 min, forepaws, read-out: lowest active dose (LAD), forepaws
[5] = 10 min, nose, read-out: lowest active dose (LAD), nose
[6] = 0.5 h, trachea, read-out: lowest active dose (LAD), trachea
[7] = 0.5 h, urinary bladder, read-out: lowest active dose (LAD), urinary bladder

Compound	minimal effective dose [1, 3] [mg/kg]	minimal effective dose [1, 4] [mg/kg]	minimal effective dose [1, 5] [mg/kg]	minimal effective dose [1, 6] [mg/kg]	minimal effective dose [1, 7] [mg/kg]	% inhibition of the response to 10^-9 M substance P [2] [%]
Cc1cc(C)cc(C(=O)N2CC[C@@H](N3CCC4(CC3)c3ccccc3CCn3ccnc34)C[C@@H]2Cc2ccccc2)c1 (relative stereo) [Compound 120]	2.5	2.5	2.5	10	10	7.7
O=C(c1cc(C(F)(F)F)cc(C(F)(F)F)c1)N1CC[C@@H](N2CCC(C3c4ccccc4CCn4ccnc43)CC2)C[C@@H]1Cc1ccccc1 (stereo partly drawn) [Compound 8]	10	2.5	2.5	10	10	82.3
Cc1cc(C)cc(C(=O)N2CC[C@@H](N3CCC(C4c5ccccc5CCn5ccnc54)CC3)C[C@H]2Cc2ccccc2)c1 (stereo partly drawn) [Compound 26]	10	10	10	10	10	25.6
Cc1cc(C)cc(C(=O)N2CC[C@@H](N3CCC(C4c5ccccc5CCn5ccnc54)CC3)C[C@@H]2Cc2ccccc2)c1 (stereo partly drawn) [Compound 27]	2.5	2.5	2.5	10	2.5	5.1
Cc1cc(C)cc(C(=O)N2CCC(N3CCC(C4c5ccccc5Cn5ccnc54)CC3)CC2Cc2ccccc2)c1 (stereo not drawn) [Compound 108]	10	10	10	10	10	2.6

Source: patent publication US6251894A, “1-(1,2-disubstituted piperidinyl)-4 (fused imidazole)-piperidine derivatives” (Janssen Pharmaceuticals N.V., priority 1995, dated 2001)
